# Results: patent publication US11186576B2, “Pyrazolo[1,5-A][1,3,5]triazine and pyrazolo[1,5-A]pyrimidine derivatives as CDK inhibitors” (Aurigene Discovery Technologies Limited, priority 2015, dated 2021)
# Columns and labels:
# CDK7/CycH/MNAT1 = CDK7/CycH/MNAT1 (Homo sapiens (Human), UniProt P50613); assay: Biochemical assay for CDK7 (TR-FRET kinase assay); conditions: 60 min pre-incubation, 1 mM ATP; for IC50: read-out: IC50; for inhibition at 10 µM: 10 μM compound, read-out: % inhibition @ 10 μM
# Chain of CDK7/CycH/MNAT1 (P50613 whole entry): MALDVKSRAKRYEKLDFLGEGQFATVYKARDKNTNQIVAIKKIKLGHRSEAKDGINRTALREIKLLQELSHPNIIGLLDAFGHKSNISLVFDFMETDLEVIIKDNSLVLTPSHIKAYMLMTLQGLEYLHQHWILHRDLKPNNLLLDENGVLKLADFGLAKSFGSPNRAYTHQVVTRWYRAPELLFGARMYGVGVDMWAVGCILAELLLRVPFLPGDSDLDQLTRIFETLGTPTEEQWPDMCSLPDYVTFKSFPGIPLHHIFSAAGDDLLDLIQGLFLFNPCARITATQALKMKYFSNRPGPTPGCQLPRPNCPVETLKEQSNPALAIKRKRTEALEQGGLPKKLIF
# Chain of CDK7/CycH/MNAT1 (P51946 whole entry partner): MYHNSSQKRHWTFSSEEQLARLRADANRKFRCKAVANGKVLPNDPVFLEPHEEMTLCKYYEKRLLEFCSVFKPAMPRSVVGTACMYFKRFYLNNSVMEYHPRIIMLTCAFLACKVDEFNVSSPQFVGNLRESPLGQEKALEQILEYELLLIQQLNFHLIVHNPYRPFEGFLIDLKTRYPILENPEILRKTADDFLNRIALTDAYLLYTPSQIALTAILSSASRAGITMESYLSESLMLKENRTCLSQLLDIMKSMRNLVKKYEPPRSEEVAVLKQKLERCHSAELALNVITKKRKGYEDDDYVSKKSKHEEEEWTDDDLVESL
# Chain of CDK7/CycH/MNAT1 (P51948 whole entry partner): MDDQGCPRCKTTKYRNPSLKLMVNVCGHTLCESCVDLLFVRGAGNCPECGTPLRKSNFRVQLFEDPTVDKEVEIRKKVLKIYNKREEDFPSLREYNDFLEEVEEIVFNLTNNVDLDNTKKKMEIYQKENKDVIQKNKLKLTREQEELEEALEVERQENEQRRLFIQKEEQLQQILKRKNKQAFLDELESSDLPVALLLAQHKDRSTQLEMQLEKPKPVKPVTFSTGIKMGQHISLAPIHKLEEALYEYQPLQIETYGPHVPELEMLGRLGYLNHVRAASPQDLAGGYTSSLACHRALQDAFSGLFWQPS
# How it was run: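 CDK7/CycH/MNAT1 (5 nM) was preincubated with compound for 60 min at room temperature, then reacted for 60 min with 100 nM ULight-MBP and 1 mM ATP in 1% DMSO. Irreversibility was probed with 20, 60 and 180 min preincubations.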
# [1] = system: RNA polymerase II CTD phosphorylation (MDA-MB-231/NCI-H358 cells); assay: Inhibition of RNA polymerase II CTD phosphorylation in cell western assay; format: cell-based; conditions: 4 hours incubation, phospho RNA Pol II Ser-5 or Ser-2
# How it was run: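 MDA-MB-231 or NCI-H358 cells treated 4 h at 37 °C with 3-fold dilutions from 10 μM, then fixed and immunostained for phospho-Ser5 or phospho-Ser2 RNA Pol II CTD. Europium-labelled secondaries give the time-resolved fluorescence read-out, normalised to Hoechst; EC50 reported in binned ranges.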
Compound,IC50 (CDK7/CycH/MNAT1) [nM],EC50 [1] [nM],inhibition at 10 µM (CDK7/CycH/MNAT1) [%]
"CC(C)c1cnn2c(NCc3cccc(NC(=O)C4CCCN(C(=O)/C=C/CN(C)C)C4)c3)nc(OC3CCN(C)CC3)nc12 (centres unmarked) [Compound 122, (E)-1-(4-(dimethylamino)but-2-enoyl)-N-(3-(((8-isopropyl-2-((1-methyl-piperidin-4-yl)oxy)pyrazolo[1,5-a][1,3,5]triazin-4-yl)amino)methyl)phenyl)-piperidine-3-carboxamide]",< 300,> 10000,–
"CC(C)c1cnn2c(NCc3ccc(F)c(NC(=O)[C@H]4CC[C@@H](NC(=O)/C=C/CN(C)C)CC4)c3)nc(OC3CCN(C)CC3)nc12 [Compound 124, (1,4-cis)-4-((E)-4-(dimethylamino)but-2-enamido)-N-(2-fluoro-5-(((8-isopropyl-2-((1-methylpiperidin-4-yl)oxy)pyrazolo[1,5-a][1,3,5]triazin-4-yl)amino)methyl)phenyl)cyclohexane-1-carboxamide]",< 300,> 10000,94
"C=CC(=O)Nc1ccc(C(=O)Nc2cccc(Nc3nc(OC4CCN(C)CC4)nc4c(C(C)C)cnn34)c2)cc1 [Compound 125, 4-acrylamido-N-(3-((8-isopropyl-2-((1-methylpiperidin-4-yl)oxy)pyrazolo[1,5-a][1,3,5]triazin-4-yl)amino)phenyl)benzamide]",< 300,≤ 1000,86
"C=CC(=O)N1CCC(NC(=O)c2cccc(Nc3nc(OC4CCN(C)CC4)nc4c(C(C)C)cnn34)c2)CC1 [Compound 128, N-(1-acryloylpiperidin-4-yl)-3-((8-isopropyl-2-((1-methylpiperidin-4-yl)oxy)pyrazolo[1,5-a][1,3,5]triazin-4-yl)amino)benzamide]",< 300,1000 to 10000,93
"CC(C)c1cnn2c(Nc3cccc(NC(=O)C4CCC(NC(=O)/C=C/CN(C)C)CC4)c3)nc(OC3CCN(C)CC3)nc12 (centres unmarked) [Compound 131, (1s,4s)-4-((E)-4-(dimethylamino)but-2-enamido)-N-(3-((8-isopropyl-2-((1-methylpiperidin-4-yl)oxy)pyrazolo[1,5-a][1,3,5]triazin-4-yl)amino)phenyl)cyclohexane-1-carboxamide]",300 to 1000,> 10000,86

# Further lines, results first:
IC50 (CDK7/CycH/MNAT1) [nM],EC50 [1] [nM],inhibition at 10 µM (CDK7/CycH/MNAT1) [%],Compound
< 300,1000 to 10000,94,"C=CC(=O)N1CCCC(NC(=O)c2cccc(Nc3nc(OC4CCN(C)CC4)nc4c(C(C)C)cnn34)c2)C1 (centres unmarked) [Compound 129, N-(1-acryloylpiperidin-3-yl)-3-((8-isopropyl-2-((1-methylpiperidin-4-yl)oxy)pyrazolo[1,5-a][1,3,5]triazin-4-yl)amino)benzamide]"
< 300,> 10000,90,"CC(C)c1cnn2c(Nc3cccc(NC(=O)[C@H]4CC[C@H](NC(=O)/C=C/CN(C)C)CC4)c3)nc(OC3CCN(C)CC3)nc12 [Compound 132, (1,4-Trans)-4-((E)-4-(dimethylamino)but-2-enamido)-N-(3-((8-isopropyl-2-((1-methylpiperidin-4-yl)oxy)pyrazolo[1,5-a][1,3,5]triazin-4-yl)amino)phenyl)cyclohexane-1-carboxamide]"
< 300,1000 to 10000,97,"CC(C)c1cnn2c(Nc3cccc(C(=O)NC4CCN(C(=O)/C=C/CN(C)C)CC4)c3)nc(OC3CCN(C)CC3)nc12 [Compound 134, (E)-N-(1-(4-(dimethylamino)but-2-enoyl)piperidin-4-yl)-3-((8-isopropyl-2-((1-methylpiperidin-4-yl)oxy)pyrazolo[1,5-a][1,3,5]triazin-4-yl)amino)benzamide]"
